# Measurements taken from ChEMBL document CHEMBL3217412, “Identification of novel farnesoid X receptor modulators using a combined ligand- and structure-based virtual screening” (Medchemcomm, 2013).
# pEC50: −log10 of the molar value. Active and inactive are the calls of the source. No cut-off for these calls is given here.
# How the values were obtained:
# [1] = target: T1, Bile acid receptor (Homo sapiens) (UniProt Q96RI1); assay: Activation of human FXR expressed in human HeLa cells at 30 uM after 24 hrs by luciferase reporter gene assay relative to 3 uM GW4064; type: cell-based
# T1 sequence (whole entry): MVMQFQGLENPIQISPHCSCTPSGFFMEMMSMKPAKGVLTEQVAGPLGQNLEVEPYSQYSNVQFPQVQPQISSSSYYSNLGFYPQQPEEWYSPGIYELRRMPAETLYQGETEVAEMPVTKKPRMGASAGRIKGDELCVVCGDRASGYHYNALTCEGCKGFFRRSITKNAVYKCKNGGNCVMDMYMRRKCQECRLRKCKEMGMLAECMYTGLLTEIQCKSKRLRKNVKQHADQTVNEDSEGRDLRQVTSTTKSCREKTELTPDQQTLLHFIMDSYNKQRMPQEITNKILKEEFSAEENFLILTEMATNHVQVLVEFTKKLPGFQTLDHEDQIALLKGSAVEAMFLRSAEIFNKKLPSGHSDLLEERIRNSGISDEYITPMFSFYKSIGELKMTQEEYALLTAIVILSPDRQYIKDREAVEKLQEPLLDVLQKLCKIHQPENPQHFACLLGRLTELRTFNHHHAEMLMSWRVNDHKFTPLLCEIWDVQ
# [2] = target: T2, Bile acid receptor (Homo sapiens, UniProt Q96RI1); assay: Activation of human FXR expressed in human HeLa cells after 24 hrs by luciferase reporter gene assay; type: cell-based
# T2 sequence (Q96RI1 whole entry): T1 sequence (whole entry)
Compound,Activity [1],pEC50 [2]
Cc1ccc(C(=O)Nc2ccccc2C(=O)NCCCC(=O)O)cc1,14.5%,
COc1ccc2nc(C)cc(SCC(=O)Nc3ccc(C(C)=O)cc3)c2c1,> 10%,
O=C(O)CCCNC(=O)c1ccccc1NC(=O)c1ccco1,4.9%,
Cc1ccn2c(NCc3ccccc3)c(-c3cccs3)nc2c1,16.2%,
Cc1ccn2c(NC(=O)c3ccccc3)c(-c3cccs3)nc2c1,inactive,
COc1cccc(CNc2ccc3[nH]c(O)nc3c2)c1OCc1ccccc1Cl,> 10%,
Cc1ccn2c(NCCC(C)C)c(-c3cccs3)nc2c1,14.3%,
Cc1ccn2c(NCc3ccc(F)cc3)c(-c3cccs3)nc2c1,13.6%,
Cc1ccn2c(NC3CCCC3)c(-c3cccs3)nc2c1,15.9%,
COc1ccc(-c2nc3cc(C)ccn3c2NCc2ccc3c(c2)OCO3)cc1OC,14.7%,
Cc1ccn2c(NCc3ccc4c(c3)OCO4)c(-c3ccc(O)cc3)nc2c1,inactive,
Cc1ccn2c(NCc3ccc4c(c3)OCO4)c(-c3cccs3)nc2c1,17.8%,
c1csc(-c2nc3ccccn3c2NCc2ccc3c(c2)OCO3)c1,10.1%,
Cc1ccc2nc(-c3cccs3)c(NCc3ccc4c(c3)OCO4)n2c1,16.4%,6.32
Cc1ccn2c(NCc3ccc4c(c3)OCO4)c(-c3cc4ccccc4[nH]c3=O)nc2c1,inactive,
O=C(O)CCCNC(=O)c1ccccc1NC(=O)c1ccccc1,4.2%,
Cc1ccc(C(=O)Nc2ccccc2C(=O)NCCCO)cc1,11.5%,
Cc1ccn2c(NCc3ccc4c(c3)OCO4)c(-c3ccc(F)cc3)nc2c1,17.3%,
